Laboratory results as given in patent US10517889B2, “Modulators of SMAD7 expression” (Ionis Pharmaceuticals, Inc., priority 2017, dated 2019).
Strand notation (5' to 3'): a small letter for the sugar, then the base; units joined by * are phosphorothioate-linked, units joined directly phosphodiester-linked; [ ] holds rarer units or linkages, { } end groups; capitals alone tell only the bases. k = constrained ethyl (cEt); [5mC] = 5-methylcytosine; d = 2'-deoxy (DNA)

The substances below were run on human SMAD7 mRNA (assay: Antisense inhibition of human SMAD7 mRNA expression in Hep3B cells by 3-10-3 cEt gapmers, 10,000 nM, electroporation (Example 2)). Conditions: Hep3B cells, 10,000 nM antisense oligonucleotide, electroporation, approximately 24 hours, RT-PCR primer probe set RTS5062, relative to untreated control cells.
Type: cell-based
Outline: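 Percent inhibition of SMAD7 mRNA, relative to untreated cells, after ~24 h exposure of electroporated Hep3B cells to 10,000 nM cEt gapmer; levels by qRT-PCR, corrected for total RNA.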
“799932 (antisense kT*k[5mC]*kA*dA*dG*dA*dG*dA*d[5mC]*dG*dG*dT*dG*kA*kG*k[5mC]) [compound 799932]” was tested, and the “% Inhibition” value was 0%. “799952 (antisense k[5mC]*kT*k[5mC]*dT*dA*dA*dG*dT*dG*dG*d[5mC]*dT*d[5mC]*kA*kT*kG) [compound 799952]” was tested, and the “% Inhibition” value was 30%. In the case of “799999 (kT*kT*kA*dG*dG*dA*dA*d[5mC]*dA*dA*dG*dG*dG*k[5mC]*kA*kA; antisense) [compound 799999]”, the “% Inhibition” value is reported as 23%. For “800093 (antisense kT*kT*kG*dA*dA*dG*dG*d[5mC]*d[5mC]*dA*dG*d[5mC]*dT*k[5mC]*k[5mC]*kT) [compound 800093]”, the “% Inhibition” value was 48%. For “799933 (antisense kT*kA*k[5mC]*dT*dA*dT*dT*d[5mC]*dA*dT*d[5mC]*dA*d[5mC]*k[5mC]*k[5mC]*kT) [compound 799933]”, the “% Inhibition” value was 22%. With “798875 (k[5mC]*kG*k[5mC]*dT*dG*d[5mC]*dA*dG*dG*d[5mC]*dT*dG*dT*kA*k[5mC]*kG; antisense) [compound 798875]” the “% Inhibition” value was 58%. With “772621 (kA*kA*k[5mC]*dT*dG*d[5mC]*dT*dG*d[5mC]*dG*dG*dT*dT*kG*kT*kA; antisense) [compound 772621]” the “% Inhibition” value was 38%.

Same assay, conditions: Hep3B cells, electroporation with 10,000 nM antisense oligonucleotide, approximately 24 hours, RTS5062, percent inhibition of SMAD7 mRNA relative to untreated control cells
For “799666 (antisense k[5mC]*kA*kG*dA*dT*dG*d[5mC]*d[5mC]*dA*dG*d[5mC]*dA*dA*kG*kG*kA) [compound 799666]”, the “% Inhibition” value was 51%. For “799822 (antisense k[5mC]*kA*k[5mC]*dG*dA*dT*d[5mC]*d[5mC]*dT*dG*dG*dG*d[5mC]*kT*k[5mC]*kT) [compound 799822]”, the “% Inhibition” value was 0%.

Same assay, conditions: Hep3B cells, electroporation with 10,000 nM antisense oligonucleotide, approximately 24 hours, SMAD7 mRNA by RT-PCR (RTS5062), relative to untreated control cells
“830057 (k[5mC]*kG*kT*dT*dT*dT*dG*dG*dG*dT*dG*dA*dG*kT*kA*kA; antisense) [compound 830057]” was tested, and the “% Inhibition” value was 42%. In the case of “799426 (antisense kG*k[5mC]*kT*dT*dA*dA*dA*dT*dT*dA*dT*dA*dG*k[5mC]*kA*kA) [compound 799426]”, the “% Inhibition” value is reported as 7%. In the case of “799861 (kA*k[5mC]*k[5mC]*dG*d[5mC]*dA*dT*dG*d[5mC]*dG*dA*dT*d[5mC]*kG*kG*kT; antisense) [compound 799861]”, the “% Inhibition” value is reported as 15%. With “798864 (kG*kT*k[5mC]*d[5mC]*dG*dG*dG*dT*dT*dG*dT*d[5mC]*d[5mC]*kA*kG*kT; antisense) [compound 798864]” the “% Inhibition” value was 33%. For “799472 (antisense kA*kG*k[5mC]*d[5mC]*dA*dT*dA*d[5mC]*d[5mC]*dT*d[5mC]*d[5mC]*dA*kT*k[5mC]*kT) [compound 799472]”, the “% Inhibition” value was 31%. For “772572 (antisense kA*kT*k[5mC]*dT*dT*d[5mC]*d[5mC]*d[5mC]*dG*dT*dA*dA*dG*kA*kT*kT) [compound 772572]”, the “% Inhibition” value was 0%. With “798818 (kT*kA*kT*dG*d[5mC]*d[5mC]*dA*d[5mC]*d[5mC]*dA*d[5mC]*dG*d[5mC]*kA*k[5mC]*k[5mC]; antisense) [compound 798818]” the “% Inhibition” value was 63%. With “800105 (antisense kT*k[5mC]*k[5mC]*dT*dA*dG*dA*dA*dT*dG*dA*dA*dG*kA*k[5mC]*kA) [compound 800105]” the “% Inhibition” value was 17%. For “830181 (antisense kG*k[5mC]*kG*dG*d[5mC]*dT*dT*d[5mC]*d[5mC]*dT*dG*dT*dG*k[5mC]*k[5mC]*k[5mC]) [compound 830181]”, the “% Inhibition” value was 10%. In the case of “798695 (antisense kT*kG*k[5mC]*dG*d[5mC]*d[5mC]*d[5mC]*dT*d[5mC]*d[5mC]*dT*d[5mC]*d[5mC]*kT*k[5mC]*kG) [compound 798695]”, the “% Inhibition” value is reported as 35%. “799391 (antisense k[5mC]*kG*k[5mC]*d[5mC]*d[5mC]*d[5mC]*dA*dG*d[5mC]*dA*dA*dA*dA*k[5mC]*kT*kT) [compound 799391]” was tested, and the “% Inhibition” value was 0%. With “799466 (antisense kG*kA*k[5mC]*dA*dG*dA*dA*dG*d[5mC]*dT*d[5mC]*dT*dA*kG*kG*k[5mC]) [compound 799466]” the “% Inhibition” value was 53%.

Same assay, conditions: Hep3B cells, electroporation with 10,000 nM antisense oligonucleotide, approximately 24 hours, primer probe set RTS5062, relative to untreated control cells
With “799344 (k[5mC]*k[5mC]*k[5mC]*dA*d[5mC]*dT*dA*dA*dT*d[5mC]*dT*dA*d[5mC]*kA*kG*kA; antisense) [compound 799344]” the “% inhibition of SMAD7 mRNA expression” value was 34%. “799154 (antisense kA*kG*kA*dG*dT*dT*dA*dG*dG*dT*dG*dT*d[5mC]*kA*kG*k[5mC]) [compound 799154]” was tested, and the “% Inhibition” value was 39%. In the case of “799080 (antisense kA*kG*kG*dG*dA*dG*dA*dT*d[5mC]*d[5mC]*dA*dG*dG*kA*kG*k[5mC]) [compound 799080]”, the “% Inhibition” value is reported as 56%. “799200 (antisense kT*k[5mC]*kA*dG*dG*dA*dG*dT*d[5mC]*d[5mC]*dT*dT*dT*k[5mC]*kT*k[5mC]) [compound 799200]” was tested, and the “% inhibition of SMAD7 mRNA expression” value was 69%. In the case of “799194 (antisense kT*kG*k[5mC]*dT*dA*dA*dA*dT*dT*dT*d[5mC]*d[5mC]*dA*kA*kT*kG) [compound 799194]”, the “% Inhibition” value is reported as 42%. “799199 (antisense kG*kG*kA*dG*dT*d[5mC]*d[5mC]*dT*dT*dT*d[5mC]*dT*d[5mC]*kT*k[5mC]*kT) [compound 799199]” was tested, and the “% inhibition of SMAD7 mRNA expression” value was 24%. With “798972 (antisense kT*kA*kT*d[5mC]*dA*dG*dG*dG*dT*dG*dT*d[5mC]*d[5mC]*kT*kG*k[5mC]) [compound 798972]” the “% inhibition of SMAD7 mRNA expression” value was 18%. With “799325 (antisense kT*k[5mC]*kT*d[5mC]*d[5mC]*d[5mC]*dA*dG*dG*dA*dG*dG*dG*kT*kA*kT) [compound 799325]” the “% inhibition of SMAD7 mRNA expression” value was 2%. With “798744 (antisense kA*kG*k[5mC]*dT*dG*d[5mC]*d[5mC]*dG*d[5mC]*dT*d[5mC]*d[5mC]*dT*kT*k[5mC]*kA) [compound 798744]” the “% inhibition of SMAD7 mRNA expression” value was 12%. In the case of “799462 (antisense kA*kA*kG*d[5mC]*dA*d[5mC]*dT*dA*dG*dG*dT*dT*d[5mC]*kT*kG*k[5mC]) [compound 799462]”, the “% inhibition of SMAD7 mRNA expression” value is reported as 43%. With “798743 (antisense kT*kG*k[5mC]*d[5mC]*dG*d[5mC]*dT*d[5mC]*d[5mC]*dT*dT*d[5mC]*dA*kG*kT*kT) [compound 798743]” the “% inhibition of SMAD7 mRNA expression” value was 19%. For “798988 (antisense kT*kG*kA*dA*dA*dT*dG*dA*dT*dG*dA*d[5mC]*d[5mC]*kG*k[5mC]*k[5mC]) [compound 798988]”, the “% inhibition of SMAD7 mRNA expression” value was 69%.

Same assay, conditions: Hep3B cells, electroporation, 10,000 nM antisense oligonucleotide, approximately 24 hours, RTS5062, relative to untreated control cells
“799773 (k[5mC]*kG*k[5mC]*dT*dA*dG*dG*dT*d[5mC]*dA*d[5mC]*dA*d[5mC]*kT*k[5mC]*kA; antisense) [compound 799773]” was tested, and the “% inhibition of SMAD7 mRNA expression” value was 43%. In the case of “799595 (k[5mC]*kT*k[5mC]*dT*dG*dA*dA*d[5mC]*dG*dG*dA*dA*dA*kG*kA*kA; antisense) [compound 799595]”, the “% inhibition of SMAD7 mRNA expression” value is reported as 35%. For “799713 (antisense k[5mC]*kA*k[5mC]*dA*dA*dT*d[5mC]*dA*d[5mC]*dT*dG*dT*dT*k[5mC]*k[5mC]*kT) [compound 799713]”, the “% inhibition of SMAD7 mRNA expression” value was 0%. For “799300 (antisense k[5mC]*kA*k[5mC]*dA*dT*dT*d[5mC]*d[5mC]*dA*dA*dA*dA*dG*kG*k[5mC]*kT) [compound 799300]”, the “% inhibition of SMAD7 mRNA expression” value was 28%. “799537 (kG*kG*kG*d[5mC]*dA*d[5mC]*d[5mC]*dA*d[5mC]*dA*dA*dT*dG*kT*k[5mC]*kA; antisense) [compound 799537]” was tested, and the “% inhibition of SMAD7 mRNA expression” value was 3%. “799542 (kG*kT*kT*dA*dA*dT*dG*dA*d[5mC]*dA*d[5mC]*d[5mC]*dA*kA*kA*kG; antisense) [compound 799542]” was tested, and the “% inhibition of SMAD7 mRNA expression” value was 30%.

Same assay, conditions: SMAD7 mRNA, Hep3B cells, 10,000 nM antisense oligonucleotide, electroporation, approximately 24 hours, primer probe set RTS5062, relative to untreated control cells
In the case of “829752 (antisense k[5mC]*k[5mC]*kG*d[5mC]*dA*dG*d[5mC]*dT*d[5mC]*dG*d[5mC]*d[5mC]*dT*k[5mC]*k[5mC]*kT) [compound 829752]”, the “% Inhibition” value is reported as 27%. In the case of “790605 (kA*kT*k[5mC]*dA*dT*dA*d[5mC]*dG*dA*dG*dT*dG*dT*kA*kT*kG; antisense) [compound 790605]”, the “% Inhibition” value is reported as 32%. With “800776 (antisense kG*kA*kG*dG*d[5mC]*dA*d[5mC]*dG*d[5mC]*dG*dG*dT*dG*k[5mC]*kG*k[5mC]) [compound 800776]” the “% Inhibition” value was 36%.

Same assay, conditions: SMAD7 mRNA, Hep3B cells, electroporation with 10,000 nM antisense oligonucleotide, approximately 24 hours, primer probe set RTS5062, relative to untreated control cells
In the case of “829906 (antisense k[5mC]*k[5mC]*kG*dG*d[5mC]*dT*dG*dT*dT*dG*dA*dA*dG*kA*kT*kG) [compound 829906]”, the “% Inhibition” value is reported as 0%. In the case of “829973 (kA*kA*kG*dA*dG*dG*d[5mC]*d[5mC]*dG*d[5mC]*d[5mC]*dT*dG*kG*k[5mC]*kG; antisense) [compound 829973]”, the “% Inhibition” value is reported as 17%. With “829960 (kA*kT*kT*dA*dT*dT*dA*dA*dT*dG*dG*dT*d[5mC]*kT*kG*k[5mC]; antisense) [compound 829960]” the “% Inhibition” value was 17%. With “829868 (antisense kA*kG*kT*dG*dT*dG*dG*d[5mC]*dG*dG*dA*d[5mC]*dT*kT*kG*kA) [compound 829868]” the “% Inhibition” value was 52%. In the case of “830002 (kT*kA*kG*d[5mC]*d[5mC]*d[5mC]*dA*dA*d[5mC]*dT*dG*dT*dT*kT*kG*kT; antisense) [compound 830002]”, the “% Inhibition” value is reported as 43%. “829946 (kG*k[5mC]*kA*dG*d[5mC]*d[5mC]*dA*dG*dT*dT*dA*dA*dT*k[5mC]*kA*kT; antisense) [compound 829946]” was tested, and the “% Inhibition” value was 44%. In the case of “829915 (antisense kG*kG*kT*dA*d[5mC]*d[5mC]*dT*dT*dG*dG*dG*dT*dT*kA*kT*kG) [compound 829915]”, the “% Inhibition” value is reported as 22%.
